Assay results published in patent publication US20090227533A1, “miR-34 Regulated Genes and Pathways as Targets for Therapeutic Intervention” (priority 2007, published 2009).

Assays:
[1] = tested on: PPC-1 prostate cancer cells; test: Long-term growth curve with repeated electroporation; assay type: cell-based, human; settings: by day 22; 1.6 μM electroporated repeatedly
Method: (§1) To evaluate the therapeutic activity of hsa-miR-34a over an extended period of time, we conducted growth curve experiments in the presence of miRNA for up to 22 days. Since in vitro transfections of naked interfering RNAs, such as synthetic miRNA, are transient by nature and compromised by the dilution of the oligo during ongoing cell divisions, miRNA was administered at multiple time points (Bartlett et al. 2006; Bartlett et al. 2007). To accommodate miRNA delivery into a large quantity of cells, the inventors employed the electroporation method to deliver hsa-miR-34a or negative control miRNA into PPC-1, PC3, and Du145 human prostate cancer cells. Briefly, 1×10^6 PPC-1 or PC3 cells, or 0.5×10^6 Du145 cells were electroporated with 1.6 μM hsa-miR-34a or negative control using the BioRad Gene Pulser Xcell™ instrument (BioRad Laboratories Inc., Hercules, Calif., USA), seeded and propagated in regular growth medium. Experiments with PC3 and Du145 cells were carried out in triplicates. When the control cells reached confluence (days 4 and 11 for PPC-1; days 7 and 14 for PC3 and Du145), cells were harvested, counted and electroporated again with the respective miRNAs. To ensure similar treatment of both conditions as well as to accommodate exponential growth, the cell numbers used for the second and third electroporation were titrated down to the lowest count. The population doubling was calculated from these electroporation events using the formula PD=ln(Nf/N0)/ln 2 and adjusting for the fact that approximately 72% of newly seeded cells adhere to the plate. Cell counts were extrapolated and plotted on a linear scale (FIG. 6). Arrows represent electroporation days. Standard deviations are included in the graphs.

[2] = tested on: Du145 prostate cancer cells; test: as above; assay type: cell-based, human
Method: as §1

[3] = tested on: PC3 prostate cancer cells; test: as above; assay type: cell-based, human
Method: as §1

[4] = tested on: leukemic T cells (Jurkat); settings: cited from earlier work
lung cancer cells (A549) = settings: cited from earlier work
H226 cells = test: Alamar Blue proliferation assay, lung cancer cells (electroporation); assay type: cell-based, human; settings: hsa-miR-34a (head: 30 nM), electroporation, 72 hours, normalized to NC (100%)
Description: (§2) The inventors assessed the therapeutic effect of hsa-miR-34a for lung cancer by using eight individual lung cancer cell lines. To measure cellular proliferation of lung cancer cells, the following non-small cell lung cancer (NSCLC) cells were used: cells derived from lung adenocarcinoma (A549, H522, Calu-3, HCC2935), cells derived from lung squamous cell carcinoma (H226), cell derived from lung adenosquamous cell carcinoma (H596), cells derived from lung bronchioalveolar carcinoma (H1650), and cells derived from lung large cell carcinoma (H460). Synthetic hsa-miR-34a (Pre-miR™-hsa-miR-34a, Ambion cat. no. AM17100) or negative control (NC) miRNA (Pre-miR™ microRNA Precursor Molecule-Negative Control #2; Ambion cat. no. AM17111) was delivered via lipid-based transfection into A549, H522, H596, Calu-3, HCC2935, H1650, H460 cells and via electroporation into H226 cells.
Lipid-based reverse transfections were carried out in triplicate according to a published protocol (Ovcharenko et al., 2005) and the following parameters: cells (5,000-12,000 per 96 well), 0.1-0.2 μl Lipofectamine™ 2000 (cat. no. 11668-019, Invitrogen Corp., Carlsbad, Calif., USA) in 20 μl OptiMEM (Invitrogen), 30 nM final concentration of miRNA in 100 μl. Electroporation of H226 cells was carried out using the BioRad Gene Pulser Xcell™ instrument (BioRad Laboratories Inc., Hercules, Calif., USA) with the following settings: 5×10^6 cells with 5 μg miRNA in 200 μl OptiMEM (1.6 μM miRNA), square wave pulse at 250 V for 5 ms. Electroporated H226 cells were seeded at 7,000 cells per 96-well in a total volume of 100 μl. All cells except for Calu-3 cells were harvested 72 hours post transfection or electroporation for assessment of cellular proliferation. Calu-3 cells were harvested 10 days post transfection. Proliferation assays were performed using Alamar Blue (Invitrogen) following the manufacturer's instructions. As a control for inhibition of cellular proliferation, siRNA against the motor protein kinesin 11, also known as Eg5, was used. […]

[5] = tested on: lung cancer cells A549, H522, H596, Calu-3, HCC2935, H1650, H460, and H226; test: Alamar Blue proliferation assay, average over eight lung cancer cell lines; assay type: cell-based, human
Description: as §2
Lipid-based reverse transfections were carried out in triplicate according to a published protocol (Ovcharenko et al., 2005) and the following parameters: cells (5,000-12,000 per 96 well), 0.1-0.2 μl Lipofectamine™ 2000 (cat. no. 11668-019, Invitrogen Corp., Carlsbad, Calif., USA) in 20 μl OptiMEM (Invitrogen), 30 nM final concentration of miRNA in 100 μl. […]

HeLa = settings: cited from earlier work

In the case of “hsa-miR-34a: synthetic miRNA; mature sequence UGGCAGUGUCUUAGCUGGUUGUU (MIMAT0000255; SEQ ID NO:1) (synthetic miRNA, chemistry not given here)”, the “fate of PPC-1 cells in long-term culture” value [1] is reported as “eliminated”, the “cells relative to cells electroporated with negative control miRNA” value ([2]; Du145, day 19) is reported as 6.9% and the “inhibition of Du145 cell growth” value ([2]; day 19, 1.6 μM electroporated repeatedly, relative to control cells (100%)) is reported as 93.1%. The “cells relative to cells electroporated with negative control miRNA” value ([3]; PC3, day 21) was 2.8%, the “inhibition of PC3 cell growth” value ([3]; day 21, 1.6 μM electroporated repeatedly, relative to control cells (100%)) was 97.2% and the proliferation [4] was “inhibits the proliferation”. For the same substance, the proliferation (lung cancer cells (A549)) was “inhibits the proliferation”, the “% proliferation” value (H226 cells) was 89.50% and the “average inhibition of cellular proliferation” value ([5]; average over eight lung cancer cell lines, relative to negative control miRNA) was 25.30%. The “growth-inhibitory activity compared with etoposide” value ([5]; lung cancer cell lines) was “comparable to that of etoposide at concentrations ≧10 μM” and the “programmed cell death (apoptosis)” value (HeLa) was “decreased”.
